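Test compounds were applied to cells in 96-well plates for 48 hours at 5 doses. TGI: concentration producing complete growth inhibition.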

What all share (assay): NCI-60 cell line screen, 48 h
In assay [1] the test system is M14 melanoma.
In assay [2] the test system is HCC-2998 colon.
The test system of assay [3] is HS 578T breast.
Assay [4] deals with A549 NSCLC.
Assay [5] concerns SNB-75 CNS.
For assay [6], the system named is BT-549 breast.
Assay [7] has as its system KM12 colon.
In assay [8] the test system is HCT-116 colon.
In assay [9] the test system is SR leukemia.
For assay [10], the system named is DU-145 prostate.
Assay [11] concerns MALME-3M melanoma.
The test system of assay [12] is MDA-N.
Assay [13] concerns HOP-92 NSCLC.
Assay [14] relates to OVCAR-5 ovarian.
Assay [15] relates to HL-60(TB) leukemia.
Assay [16] has as its system MDA-MB-231 breast.
The test system of assay [17] is COLO 205 colon.
The subject of assay [18] is SK-MEL-2 melanoma.
For assay [19], the system named is NCI-H226 lung.

`CCCCCCCCCCCCCC(=O)OCC(CCS(=O)(=O)O[C@H]1CC[C@@]2(C)C(=CC[C@@H]3C2CC[C@]2(C)C(=O)CCC32)C1)OC(=O)CCCCCCCCCCCCC` (stereo not given in full): the TGI in [1], in assay [2], in assay [3], in assay [4], in assay [5] and in assay [6] was above 100 µM throughout. Moreover, the TGI in assay [7], in [8], in [9], in assay [10], in [11] and in assay [12] was above 100 µM in each case. Further, the TGI in [13], in assay [14], in assay [15], in [16], in [17] and in [18] was above 100 µM in each case.
Turning to `COc1ccc2[nH]c3c(c2c1)CCc1c(OC)cccc1-3`, the TGI in assay [1], in assay [2], in [3], in [4], in [5] and in assay [6] was above 100 µM each time. Further, the TGI in assay [7], in assay [8], in assay [9], in assay [10], in [11] and in [12] was above 100 µM throughout. For the same compound, the TGI in assay [13], in assay [14], in assay [16], in assay [17], in [18] and in [19] was above 100 µM throughout.
In the case of `Cn1c2ccccc2c2c3c(c4c5ccccc5n(C)c4c21)C(=O)N(Cc1ccccc1)C3=O`, the TGI in [1], in assay [2], in [3], in assay [4], in [5] and in assay [6] was above 100 µM throughout. Also, the TGI in assay [7] was above 100 µM; in assay [8], above 100 µM; in [9], 51.6 µM; in assay [10], above 100 µM; in assay [11] it was above 100 µM; in [12], above 100 µM. Also, the TGI in assay [13], in assay [14], in [16], in assay [17], in assay [18] and in assay [19] was above 100 µM each time.
Consider `Cc1cn(C(CO)OC(CO)CN(O)C2C3CC4CC(C3)CC2C4)c(=O)[nH]c1=O` (stereo not given), for which the TGI in assay [1], in assay [2], in assay [3], in assay [4], in assay [5] and in assay [6] was above 100 µM each time. Moreover, the TGI in [7], in assay [8], in assay [9], in assay [10], in [12] and in assay [13] was above 100 µM each time. Besides, the TGI in [14], in assay [15], in [16], in assay [17], in assay [18] and in assay [19] was above 100 µM in each case.
For the compound `Cc1c(C)c(S(=O)(=O)N(CCCN)OCCCN)c(C)c2c1OC(C)(C)CC2`, the TGI turned out to be 27.7 µM in assay [1]; 21.2 µM in [2]; 29.6 µM in [3]; 29.6 µM in assay [4]; 23.4 µM in assay [5]; 31.4 µM in assay [6]. Besides, the TGI in assay [7] was 25.6 µM; in assay [8], 30 µM; in assay [9], 33.4 µM; in assay [10], 29.5 µM; in [11] it was 27.8 µM; in assay [12], 29.2 µM. The TGI in assay [13] is 19.9 µM; in assay [14] it was 25.8 µM; in assay [16], 17.6 µM; in [17] it was 32.1 µM; in [18], 32.1 µM; in [19], 28 µM.
On to `Cc1ccc(F)c2[nH]c(-c3ccccc3)cc(=O)c12`, for which the TGI is above 100 µM in assay [1]; above 100 µM in [2]; above 100 µM in [3]; above 53.5 µM in assay [4]; above 30.6 µM in assay [5]; above 100 µM in assay [6]. The TGI in assay [7], in [8], in [9], in assay [10], in assay [11] and in assay [12] was above 100 µM in each case. Further, the TGI in assay [14] is above 31.3 µM; in [15], above 100 µM; in assay [16], above 100 µM; in [17], 24.9 µM; in assay [18], above 100 µM; in [19], above 100 µM.
As to `COc1ccc(C/C=C(\C)CCO)cc1`, the TGI in assay [1], in assay [3], in [4], in assay [5], in assay [6] and in assay [7] was above 100 µM each time. Also, the TGI in assay [8], in [9], in [10], in assay [12], in assay [13] and in assay [14] was above 100 µM in each case. Further, the TGI in assay [16], in assay [17] and in assay [18] was above 100 µM in each case.
For `CC(=O)OC(OC(C)=O)c1c2ccccc2cc2ccccc12`, the TGI came out at 44.8 µM in assay [1]; 40.5 µM in assay [2]; 78.3 µM in assay [3]; 65.9 µM in assay [4]; 43.9 µM in [5]; 32.9 µM in [6]. The TGI in assay [7] is 33.4 µM; in [8] it was 28.3 µM; in assay [9], 56.3 µM; in [10], above 100 µM; in assay [12], 63.7 µM; in assay [13], 57.5 µM. The TGI in assay [14] is 75.6 µM; in assay [15] it was above 100 µM; in assay [16], 40.1 µM; in [17], 37.2 µM; in assay [19], 37.7 µM.

The values are drawn from PubChem BioAssay (NCI).
